Source: PubChem BioAssay AID2060894 (Molecular Pharmacology Branch, DTP, NCI, 2025)

Tested on: K12877-001-R-J1-PDC complex spheroid viability
Test: Anticancer human tumor K12877-001-R-J1-PDC patient-derived lung adenocarcinoma cell line growth inhibition [RAS]
Conditions: for IC50: curve of first compound; for viability, T/C: stronger effect = lower value
Description: RAS pathway inhibitors in Combinations in Complex Spheroids
A high-throughput screen of multi-cell type tumor spheroids was designed to identify active combinations of RAS pathway inhibitors and targeted small molecules. Complex spheroids include a stromal component modeled by human endothelial cells (HUVEC) and fibroblasts modeled by human mesenchymal stem cells (MSCs). The concentration ranges selected for each drug and investigational agent were based upon clinically achievable concentrations if the clinical Cmax of the agent was known.
Compounds. The drugs and investigational agents: abemaciclib (NSC768073), cobimetinib (NSC768068), divarasib (GDC6063, NSC841802), docetaxel (NSC628503), GDC-1971 (RLY-1971, NSC841576), gemcitabine (NSC613327), inavolisib (NSC800729), ipatasertib (NSC767898), KB-0742 (NSC834161), MRTX-1133 (NSC836407), osimertinib (NSC779217), RMC-4630 (NSC839698), RMC-6236 (NSC851965), RMC-6291 (NSC852671), Ro-3306 (NSC812927), sapanisertib (NSC764658), SN-38 (NSC673596), staurosporine (NSC755774), SY5609 (NSC837396), and tovorafenib (DAY101, NSC766906), were obtained from the National Cancer Institute (NCI) Developmental Therapeutics Program Chemical Repository. The FDA-approved anticancer drug set is available from the NCI Developmental Therapeutics Program. […] The stock solutions were prepared in dimethyl sulfoxide (DMSO, Sigma-Aldrich, St. Louis, MO, cat. D2650) at 800-fold the tested concentration and stored at -70 degrees C prior to their use. All drugs and investigational agents were tested over a range starting from a high concentration at or near the clinical Cmax and decreasing in half-log increments. If the clinical Cmax for an agent had not been determined, the highest concentration tested was 10 microM.
Cell Culture. All cells were maintained in an incubator at 37 degrees C and 5% CO2 with 95% humidity. The PDC lines were cultured according to standard operating procedures established by the NCI PDMR. All PDCs were thawed and cultured in Matrigel-coated flasks prepared with a working solution of 1X Ham's F-12 nutrient mix, without supplementation (Invitrogen, Waltham, MA, cat. 11765054), 100 U/mL penicillin-streptomycin (Invitrogen, cat. 15140122), and 2.5% Matrigel (Corning Inc., Corning, NY, cat. 354248) for the first three passages. The 362531-283-R-J2-PDC and 782815-120-R-J1-PDC lines were cultured in 6C/Colon 1B media, which includes advanced DMEM/F-12 (Thermo Fisher Scientific, cat. 12634028), 10 mM HEPES (Thermo Fisher Scientific, cat. 15630080), 1X GlutaMAX supplement (Thermo Fisher Scientific, cat. 35050061), 0.1 mg/mL primocin (InvivoGen, San Diego, CA, cat. ant-pm-2), 10% defined fetal bovine serum, heat inactivated (HyClone Laboratories Inc., Logan, UT, cat. SH30070.03HI), 50% L-WRN conditioned media (ATCC, cat. CRL-3276), 1.25 mM N-Acetyl-L-cysteine (Sigma-Aldrich, cat. A9165), 10 mM nicotinamide (Sigma-Aldrich, cat. N0636), 1X B-27 supplement (Thermo Fisher Scientific, cat. 17504044), 1X N-2 supplement (Thermo Fisher Scientific, cat. 17502048), 50 ng/mL human EGF (Thermo Fisher Scientific, cat. PHG0311), and 10 microM Y-27632 dihydrochloride (Tocris Bioscience, cat. 1254). The K12877-001-R-J1-PDC line was cultured in 6I media, which includes all 6C/Colon 1B media plus 10 ng/mL human FGF-10 (PeproTech, cat. 100-26), 1 ng/mL human FGF-2 (PeproTech, cat. 100-18B), 1 µM prostaglandin E2 (Tocris Bioscience, cat. 2296), […] hydrocortisone (Sigma-Aldrich, cat. H4001), and […] bovine insulin (Sigma-Aldrich, cat. I6634). The K86415-001-R-J1-PDC line was cultured in 6D media, which includes all 6C/Colon 1B media components minus the L-WRN conditioned media. The 485176-168-R4-J1-PDC was cultured in PANC media, which includes all 6C/Colon 1B media plus 100 ng/mL human FGF-10 (PeproTech, cat. 100-26), 500 nM SB-431542 (Selleckchem, cat. S1067), and 10 nM gastrin (Tocris Bioscience, cat. 3006). […]
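Note: spheroids exposed to agents for one week before readout.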

`CC1(C)CCC(Nc2ncc(C(F)(F)F)c(-c3c[nH]c4c(P(C)(C)=O)c(C#N)ccc34)n2)CN1` (configuration not stated) + C#Cc1c(F)ccc2cc(O)cc(-c3ncc4c(N5CC6CCC(C5)N6)nc(OCC56CCCN5CC(F)C6)nc4c3F)c12 gave an IC50 (second compound 0.0316 µM) of 55.5 nM, an IC50 (second compound 0.1 µM) of 34.6 nM and an IC50 (second compound 0.316 µM) of 55.9 nM. The IC50 (second compound 1 µM) was 50.3 nM, the IC50 (second compound 3.16 µM) was 84.3 nM and the IC50 (second compound 10 µM) was 187 nM. The viability, T/C (second compound 0.0316 µM, first compound 0.000949 µM) was 93.6%, the viability, T/C (second compound 0.0316 µM, first compound 0.003 µM) was 83.7% and the viability, T/C (second compound 0.0316 µM, first compound 0.00949 µM) was 89.6%. It also gave a viability, T/C (second compound 0.0316 µM, first compound 0.03 µM) of 65.2%, a viability, T/C (second compound 0.0316 µM, first compound 0.0949 µM) of 37.2% and a viability, T/C (second compound 0.0316 µM, first compound 0.3 µM) of 32%. The viability, T/C (second compound 0.1 µM, first compound 0.000949 µM) was 97.6%, the viability, T/C (second compound 0.1 µM, first compound 0.003 µM) was 100% and the viability, T/C (second compound 0.1 µM, first compound 0.00949 µM) was 83.8%. The viability, T/C (second compound 0.1 µM, first compound 0.03 µM) was 52.3%, the viability, T/C (second compound 0.1 µM, first compound 0.0949 µM) was 34.5% and the viability, T/C (second compound 0.1 µM, first compound 0.3 µM) was 29.1%. It also gave a viability, T/C (second compound 0.316 µM, first compound 0.000949 µM) of 89.9%, a viability, T/C (second compound 0.316 µM, first compound 0.003 µM) of 92% and a viability, T/C (second compound 0.316 µM, first compound 0.00949 µM) of 87%. It also gave a viability, T/C (second compound 0.316 µM, first compound 0.03 µM) of 63.3%, a viability, T/C (second compound 0.316 µM, first compound 0.0949 µM) of 39% and a viability, T/C (second compound 0.316 µM, first compound 0.3 µM) of 32.9%. The viability, T/C (second compound 1 µM, first compound 0.000949 µM) was 96.9%, the viability, T/C (second compound 1 µM, first compound 0.003 µM) was 87.5% and the viability, T/C (second compound 1 µM, first compound 0.00949 µM) was 104%. The viability, T/C (second compound 1 µM, first compound 0.03 µM) was 60.8%, the viability, T/C (second compound 1 µM, first compound 0.0949 µM) was 40% and the viability, T/C (second compound 1 µM, first compound 0.3 µM) was 33.6%. The viability, T/C (second compound 3.16 µM, first compound 0.000949 µM) was 100%, the viability, T/C (second compound 3.16 µM, first compound 0.003 µM) was 93.6% and the viability, T/C (second compound 3.16 µM, first compound 0.00949 µM) was 86.6%. It also gave a viability, T/C (second compound 3.16 µM, first compound 0.03 µM) of 82.5%, a viability, T/C (second compound 3.16 µM, first compound 0.0949 µM) of 45.6% and a viability, T/C (second compound 3.16 µM, first compound 0.3 µM) of 39.9%. For the same compound, the viability, T/C (second compound 10 µM, first compound 0.000949 µM) was 99.8%, the viability, T/C (second compound 10 µM, first compound 0.003 µM) was 88.7% and the viability, T/C (second compound 10 µM, first compound 0.00949 µM) was 73.7%. For the same compound, the viability, T/C (second compound 10 µM, first compound 0.03 µM) was 72.9%, the viability, T/C (second compound 10 µM, first compound 0.0949 µM) was 56.9% and the viability, T/C (second compound 10 µM, first compound 0.3 µM) was 44.2%.
